Source: PubChem BioAssay (NCI)
Where “and” joins values, the source holds several entries; their conditions need not be identical. Equal entries are not always repeated.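 Briefly, cells in 96-well plates were exposed to five compound concentrations for 48 h, and endpoints were estimated by linear interpolation. Abbreviation: GI50, concentration required for 50% inhibition of growth. TGI: total growth inhibition.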 Where a SMILES comes first, the peptide text is derived from it. [ ]: non-standard residue; d: D form. 2Nal = N[CH](Cc1ccc2ccccc2c1)C(=O)O

How the values were obtained:
Experiment in all cases: NCI-60 cell line screen, 48 h
UACC-257 melanoma = test system: UACC-257 melanoma
HCC-2998 colon = test system: HCC-2998 colon
LOX IMVI melanoma = test system: LOX IMVI melanoma
SK-OV-3 ovarian = test system: SK-OV-3 ovarian
MDA-MB-231 breast = test system: MDA-MB-231 breast
HCT-15 colon = test system: HCT-15 colon
SK-MEL-2 melanoma = test system: SK-MEL-2 melanoma
CAKI-1 renal = test system: CAKI-1 renal
EKVX NSCLC = test system: EKVX NSCLC
SR leukemia = test system: SR leukemia

Row | Structure (SMILES) | GI50 (UACC-257 melanoma) | TGI (UACC-257 melanoma) | GI50 (HCC-2998 colon) | TGI (HCC-2998 colon) | GI50 (LOX IMVI melanoma) | TGI (LOX IMVI melanoma) | GI50 (SK-OV-3 ovarian) | TGI (SK-OV-3 ovarian) | GI50 (MDA-MB-231 breast) | TGI (MDA-MB-231 breast) | GI50 (HCT-15 colon) | TGI (HCT-15 colon) | GI50 (SK-MEL-2 melanoma) | TGI (SK-MEL-2 melanoma) | GI50 (CAKI-1 renal) | TGI (CAKI-1 renal) | GI50 (EKVX NSCLC) | TGI (EKVX NSCLC) | GI50 (SR leukemia) | TGI (SR leukemia)
1 | O=C(Nc1ccc2c(c1)OCO2)C(=O)c1c[nH]c2cc(F)ccc12 | 1.7 µM | 15.5 µM | 0.688 µM | > 100 µM | 0.476 µM | > 100 µM | 4.24 µM | 15.2 µM | 2.12 µM | 25.4 µM | 0.67 µM | > 100 µM | 5.19 µM | 31.1 µM | 0.677 µM | > 100 µM | 13.3 µM | > 100 µM | 2.85 µM | 19.6 µM
2 | CCOC(=O)c1cc(-c2ccc(OC)c(OC)c2)[nH]c1N/N=C/c1c(Cl)cccc1Cl | 13.2 µM | > 71.9 µM | 0.668 µM | 4.38 µM | 3.6 µM | 20.5 µM | 1.85 µM | 17.6 µM | 2.9 µM | 8.84 µM | 2.38 µM | 10.7 µM | 7.28 µM | 48.6 µM | 1.59 µM | 11.4 µM | 5.37 µM | 19.9 µM | 0.41 µM | 1.93 µM
3 | COC(=O)C1=C(C(=O)OC)C2OC1c1cc3ccccc3cc12 | – | 17.5 µM | – | 23.4 µM | – | 30.5 µM | – | 33 µM | – | 33.7 µM | – | 8.09 µM | – | 29.5 µM | – | 4.26 µM | – | 17.6 µM | – | 3.55 µM
4 | CC(C)(C)NC/C(=C\c1ccccc1)C(=O)c1ccccc1 | 2.12 µM | 6.91 µM | 1.74 µM | 3.35 µM | 1.3 µM | 2.89 µM | 3.83 µM | 13.8 µM | 2.72 µM | 8.12 µM | 1.56 µM | 7.16 µM | 2.01 µM | 5.02 µM | 1.88 µM | 6.36 µM | 3.29 µM | 13.6 µM | 1.67 µM | 8.68 µM
5 | C=C1C(=O)OC2CC3(C)CCCC(C)C3=CC12 (stereo not drawn) | – | 18.1 µM | – | 16.2 µM | – | 4.42 µM | – | 56.1 µM | – | 26.9 µM | – | 5.08 µM | – | 28.5 µM | – | 9.27 µM | – | 24.3 µM | – | 7.04 µM
6 | COc1cc2ncn(-c3cc(OCc4ccccc4C(F)(F)F)c(C(C)=O)s3)c2cc1OC | > 25 µM | > 25 µM | > 25 µM | > 25 µM | > 25 µM | > 25 µM | > 25 µM | > 25 µM | 24.2 µM | > 25 µM | > 25 µM | > 25 µM | > 25 µM | > 25 µM | > 25 µM | > 25 µM | > 25 µM | > 25 µM | > 25 µM | > 25 µM
7 | CC(C)C(NC(=O)C(CCCCN)NC(=O)C(Cc1c[nH]c2ccccc12)NC(=O)C(Cc1ccc(O)cc1)NC(=O)C(CS)NC(=O)C(N)Cc1ccc2ccccc2c1)C(=O)NC(CS)C(=O)NC(C(N)=O)C(C)O (stereo not drawn) (H-[2Nal]CYWKVCT-NH2; configuration not given here) | > 100 µM | > 100 µM | > 100 µM | > 100 µM | – | > 12.5 µM | > 100 µM | > 100 µM | – | > 12.5 µM | > 100 µM | > 100 µM | > 100 µM | > 100 µM | > 100 µM | > 100 µM | > 100 µM | > 100 µM | > 100 µM | > 100 µM
8 | O=C(Cn1c(C(=O)c2ccccc2)nc2ccccc21)c1ccc(F)cc1 | 74.3 µM | > 100 µM | 6.41 µM | > 100 µM | 7.26 µM | > 100 µM | 32.7 µM | > 100 µM | 15.7 µM | > 100 µM | 3.56 µM | > 100 µM | 17.4 µM | > 74 µM | – | > 30.9 µM | 21.1 µM | > 100 µM | 1.21 µM | –
9 | NC(=Nc1nc(-c2ccccn2)cc2ccccc12)c1ccccn1 | – | 0.794 µM and 1.15 µM | – | > 100 µM | 0.158 µM | 0.677 µM and 1.23 µM | 0.263 µM | > 19.4 µM | 0.941 µM | > 100 µM | 0.000503 µM | > 19.7 µM | 0.477 µM and 0.272 µM | > 89.3 µM | 0.0422 µM | > 11.9 µM | – | > 17.2 µM | 0.0619 µM and < 0.0145 µM | 0.243 µM and 0.722 µM
